# Assay results published in ChEMBL document CHEMBL1201862, “PubChem BioAssay data set” (2004).
# Calls of active or inactive are those of the source.
# How the values were obtained:
# [1] = alpha-synuclein stem-loop luciferase translation blockers – H4 neuroglioma cells, luminescence, confirmation (AID 1988); format: functional, cell-based
# HT-1080 = assay: HT1080 cell viability loss – fluorescence readout (AID 620); format: functional, cell-based; conditions: Homo sapiens
# [2] = target: Luciferin 4-monooxygenase (Photinus pyralis, UniProt P08659); assay: Counter Screen for Luciferase-based Assay Positives. [Related pubchem assays: 620, 618, 411 ]
# [3] = Luminescence Cell-Based Dose Response HTS to Identify Inhibitors of 5'UTR Stem-Loop Driven Prion Protein mRNA Translation in H4 Neuroglioblastoma Cells. [Related pubchem assays: 1827 (Project Summary), 1813 (Primary HTS)]; format: functional
# [4] = Luminescence Cell-Based Dose Confirmation HTS to Identify Inhibitors of Polyadenylation.; format: functional
# NADPH oxidase 1 [5] = target: T1, NADPH oxidase 1 (Homo sapiens, UniProt Q9Y5S8); format: functional, cell-based
# T1 sequence (Q9Y5S8 whole entry): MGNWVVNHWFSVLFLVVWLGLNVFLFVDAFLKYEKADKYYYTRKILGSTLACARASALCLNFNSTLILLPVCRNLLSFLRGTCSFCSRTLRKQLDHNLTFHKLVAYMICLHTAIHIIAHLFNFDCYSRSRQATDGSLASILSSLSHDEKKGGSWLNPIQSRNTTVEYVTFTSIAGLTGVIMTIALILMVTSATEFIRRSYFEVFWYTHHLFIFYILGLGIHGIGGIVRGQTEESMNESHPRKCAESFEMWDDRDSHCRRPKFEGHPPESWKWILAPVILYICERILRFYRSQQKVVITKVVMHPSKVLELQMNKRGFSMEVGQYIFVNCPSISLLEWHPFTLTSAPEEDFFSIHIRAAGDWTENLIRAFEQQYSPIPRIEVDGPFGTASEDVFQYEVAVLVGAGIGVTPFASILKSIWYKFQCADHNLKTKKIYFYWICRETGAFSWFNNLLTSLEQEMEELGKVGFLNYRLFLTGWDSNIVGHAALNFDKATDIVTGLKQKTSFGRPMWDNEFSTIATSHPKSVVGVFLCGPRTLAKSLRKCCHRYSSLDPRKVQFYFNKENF
# Ephrin type-A receptor 4 = Ephrin type-A receptor 4 (Mus musculus, UniProt Q03137); assay: EphA4 ligand-binding antagonists – biochemical, colorimetric, mouse EphA4, primary screen (AID 689); format: functional
# Bcl-2-related protein A1 [6] = target: T2, Bcl-2-related protein A1 (Mus musculus, UniProt Q07440); assay: displacement of Bid BH3 peptide from Bfl-1 – biochemical, fluorescence polarization, FITC-Bid, mouse, primary screen (AID 432)
# T2 sequence (Q07440 whole entry): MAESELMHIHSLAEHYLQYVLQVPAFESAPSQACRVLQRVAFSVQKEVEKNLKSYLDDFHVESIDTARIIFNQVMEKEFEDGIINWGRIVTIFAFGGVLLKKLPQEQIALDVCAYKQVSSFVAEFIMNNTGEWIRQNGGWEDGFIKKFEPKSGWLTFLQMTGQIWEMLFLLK
# Bcl-2-related protein A1 [7] = target: T2, Bcl-2-related protein A1; assay: small-molecule antagonists of Bfl-1/BH3 interaction – biochemical, TR-FRET, mouse Bfl-1, confirmation (AID 621);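 also: TR-FRET binding of GST-Bfl-1 to FITC-labelled Bid peptide via terbium antibody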
# Cytochrome P450 2D6 = Cytochrome P450 2D6 (Homo sapiens, UniProt P10635);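 also: CYP2D6 member of a cytochrome P450 panel assay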
# NADPH oxidase 1 [8] = target: T1, NADPH oxidase 1; assay: Late-stage luminescence-based cell-based dose response assay to identify inhibitors of NADPH oxidase 1 (NOX1): Purchased analogs 2.; format: functional
# [9] = target: Guanyl-specific ribonuclease T1 (Aspergillus oryzae (strain ATCC 42149 / RIB 40), UniProt P00651); assay: inhibition of ribonuclease T1 activity – biochemical, fluorescence polarization, 1536-well, counter-screen for TPT1 inhibitor project, dose response (AID 2167)
# [10] = target: T3, Dual specificity protein phosphatase 3 (Homo sapiens, UniProt P51452); assay: VHR1 phosphatase inhibitors, biochemical (AID 1878)
# [11] = target: Voltage-gated inwardly rectifying potassium channel KCNH2 (Homo sapiens, UniProt Q12809); assay: concentration-dependent hERG rescue from blockers – cell-based, thallium flux, dose response (AID 2121); format: ADME
# [12] = target: T4, Dual specificity protein phosphatase 6 (Rattus norvegicus, UniProt Q64346); assay: inhibition of rat DUSP6 enzyme activity – biochemical, in vitro, primary screen (AID 425)
# T4 sequence (Q64346 whole entry): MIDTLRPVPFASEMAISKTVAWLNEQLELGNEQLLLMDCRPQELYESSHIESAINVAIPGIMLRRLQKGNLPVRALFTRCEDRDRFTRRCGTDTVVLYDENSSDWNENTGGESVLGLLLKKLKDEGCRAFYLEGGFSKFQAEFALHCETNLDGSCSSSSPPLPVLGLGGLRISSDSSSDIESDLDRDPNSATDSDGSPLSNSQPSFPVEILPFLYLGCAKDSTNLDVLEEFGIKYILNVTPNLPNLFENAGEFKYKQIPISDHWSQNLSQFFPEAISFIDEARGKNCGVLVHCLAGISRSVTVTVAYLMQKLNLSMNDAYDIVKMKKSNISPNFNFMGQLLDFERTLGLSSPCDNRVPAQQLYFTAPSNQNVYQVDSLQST
# [13] = target: Likely tRNA 2'-phosphotransferase (Candida albicans (strain SC5314 / ATCC MYA-2876) (Yeast), UniProt Q5A7N4); assay: inhibition of Candida TPT1 enzyme activity – biochemical, fluorescence polarization, dose response (AID 2160)
# [14] = target: T3, Dual specificity protein phosphatase 3; assay: VHR1 phosphatase inhibitors, primary screen, biochemical, absorbance, uHTS (AID 1654)
# Genome polyprotein = Genome polyprotein (Hepatitis C virus, UniProt Q2Q167); assay: disruption of hepatitis C core self-association – biochemical, TR-FRET, dose response (AID 2159); parameters: species or system Hepacivirus hominis;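 also: blocks dimerization of HCV core protein measured by TR-FRET between tagged core106 pairs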
# NADPH oxidase 1 [15] = target: T1, NADPH oxidase 1; assay: Late-stage luminescence-based cell-based dose response assay to identify inhibitors of NADPH oxidase 1 (NOX1): Synthesized analogs 3.; format: functional
# [16] = target: Sphingosine 1-phosphate receptor 2 (Homo sapiens, UniProt O95136); assay: Dose Response Cell Based Assay for Agonists of the S1P2 Receptor of Purchased Analogues. [Related pubchem assays: 729, 843, 854, 736 ]; format: functional
# [17] = target: E3 ubiquitin-protein ligase Mdm2 (Homo sapiens, UniProt Q00987); assay: MDM2-luc reporter signal enhancers, multi-concentration potency testing, MDM2 ubiquitin-protein ligase inhibitor program, whole-cell format, luminescence detection, 384-well microplate (AID 1394); format: functional;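 also: MDM2 E3 inhibitors raise luminescence so EC50 is for signal enhancement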
# H4 = assay: Luminescence Cell-Based Dose Response HTS to Identify Activators of 5'UTR Stem-Loop Driven Prion Protein mRNA Translation in H4 Neuroglioblastoma Cells. [Related pubchem assays: 1829 (Project Summary), 1814 (Primary HTS)]; format: functional; conditions: Homo sapiens
# [18] = Luminescence Cell-Based Dose Confirmation HTS to Identify Activators of 5'UTR Stem-Loop Driven Alpha-Synuclein mRNA Translation in H4 Neuroglioblastoma Cells. [Related pubchem assays: 1829 (Project Summary), 1814 (Primary HTS)]; format: functional
# [19] = Luminescence Cell-Based Dose Response HTS to Identify Activators of Luciferase Translation or Activity in H4 […] Cells. [Related pubchem assays: 1829 (Project Summary), 1814 (Primary HTS)]; format: functional
# [20] = A High Throughput Confirmatory Assay used to Identify Novel Compounds that Inhibit Mycobacterium Tuberculosis in the absence of Glycerol.; format: functional
# [21] = target: Glyceraldehyde-3-phosphate dehydrogenase (Homo sapiens, UniProt P04406)
# Bcl-2-related protein A1 [22] = target: T2, Bcl-2-related protein A1; assay: Bfl-1 binding inhibitors, SAR follow-up, biochemical, fluorescence polarization (AID 1070)
# Procathepsin L = Procathepsin L (Homo sapiens, UniProt P07711); assay: CTSL1 protease inhibition – biochemical, QFRET, 1536-well, counter-screen for M1/M17 aminopeptidase inhibitor project, dose response (AID 2214)
# Aspartyl aminopeptidase = Aspartyl aminopeptidase (Plasmodium falciparum 3D7, UniProt Q8I2J3); assay: Counterscreen for inhibitors of M1 and M17 aminopeptidases: QFRET-based biochemical high throughput dose response assay for inhibitors of the Plasmodium falciparum M18 Aspartyl Aminopeptidase (PFM18AAP). [Related PubChem assays: 1619 (Screening assay (M17LAP inhibitors).), 1445 (Screening assay (M1AAP inhibitors).)]
# Aminopeptidase N = target: T5, Aminopeptidase N (Plasmodium falciparum FcB1/Columbia, UniProt O96935); assay: malaria alanyl aminopeptidase activity blockers – biochemical, fluorogenic H-Leu-NHMec substrate, 1536-well (AID 1445); parameters: species or system Plasmodium falciparum 3D7, 3D7
# T5 sequence (O96935 whole entry): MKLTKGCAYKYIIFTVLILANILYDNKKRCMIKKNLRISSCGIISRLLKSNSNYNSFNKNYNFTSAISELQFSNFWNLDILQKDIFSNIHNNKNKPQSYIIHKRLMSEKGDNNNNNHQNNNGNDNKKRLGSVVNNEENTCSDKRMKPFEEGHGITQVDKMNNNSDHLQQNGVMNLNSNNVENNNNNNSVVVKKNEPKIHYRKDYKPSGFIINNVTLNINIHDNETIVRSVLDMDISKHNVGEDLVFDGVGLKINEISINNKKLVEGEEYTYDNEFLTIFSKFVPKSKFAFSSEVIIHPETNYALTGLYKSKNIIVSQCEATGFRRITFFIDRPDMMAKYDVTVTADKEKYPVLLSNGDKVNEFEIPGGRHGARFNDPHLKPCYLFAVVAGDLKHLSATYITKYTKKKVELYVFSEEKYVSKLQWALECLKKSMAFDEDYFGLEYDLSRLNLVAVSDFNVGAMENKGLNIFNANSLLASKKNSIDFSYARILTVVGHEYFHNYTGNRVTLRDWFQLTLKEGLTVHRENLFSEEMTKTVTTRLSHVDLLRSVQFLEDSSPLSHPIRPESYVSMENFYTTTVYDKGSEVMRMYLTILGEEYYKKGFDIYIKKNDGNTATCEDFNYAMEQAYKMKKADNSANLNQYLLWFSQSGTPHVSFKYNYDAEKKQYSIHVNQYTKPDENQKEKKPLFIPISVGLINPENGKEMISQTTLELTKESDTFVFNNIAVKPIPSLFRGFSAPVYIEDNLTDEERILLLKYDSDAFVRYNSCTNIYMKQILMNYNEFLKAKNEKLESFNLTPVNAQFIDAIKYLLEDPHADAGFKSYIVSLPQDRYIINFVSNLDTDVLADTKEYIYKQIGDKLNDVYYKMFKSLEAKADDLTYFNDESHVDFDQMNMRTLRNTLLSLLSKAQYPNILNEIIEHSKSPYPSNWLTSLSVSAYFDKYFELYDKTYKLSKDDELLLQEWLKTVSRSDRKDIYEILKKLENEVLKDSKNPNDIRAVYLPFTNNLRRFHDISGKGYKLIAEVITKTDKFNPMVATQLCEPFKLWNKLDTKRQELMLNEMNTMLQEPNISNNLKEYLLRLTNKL
# Vero = assay: inhibition of WNV-induced cytopathic effect – cell-based, CPE readout (AID 1621); format: functional; conditions: Chlorocebus sabaeus
# [23] = viability loss of HPDE-C7K cells – cell-based, fluorescence, HTS, primary screen (AID 431); format: functional; conditions: Homo sapiens
# Streptococcus = assay: GAS UMAA2166 growth inhibition – luminescence, BacTiterGlo, counter-screen for streptokinase expression inhibitor project, dose response (AID 1915); format: functional, organism-based;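 also: potency for reduction of bacterial viability or growth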
# [24] = HPDE-C7 pancreatic duct cell viability loss – fluorescence, HTS (AID 430); format: functional, cell-based; conditions: Homo sapiens
# [25] = system: Streptococcus sp. 'group A'; assay: Streptococcus pyogenes SK(-)GAS viability under kanamycin – luminescence, BacTiterGlo, confirmation, counter-screen for streptokinase expression inhibitor project, dose response (AID 1900); format: functional, organism-based
# T3 sequence (P51452 whole entry): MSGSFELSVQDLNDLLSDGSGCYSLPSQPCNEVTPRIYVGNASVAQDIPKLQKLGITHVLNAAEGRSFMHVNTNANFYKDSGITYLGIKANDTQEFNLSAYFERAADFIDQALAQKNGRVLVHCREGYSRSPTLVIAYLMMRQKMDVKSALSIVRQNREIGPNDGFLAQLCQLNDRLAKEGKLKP
# Chain of Glyceraldehyde-3-phosphate dehydrogenase (P04406 whole entry): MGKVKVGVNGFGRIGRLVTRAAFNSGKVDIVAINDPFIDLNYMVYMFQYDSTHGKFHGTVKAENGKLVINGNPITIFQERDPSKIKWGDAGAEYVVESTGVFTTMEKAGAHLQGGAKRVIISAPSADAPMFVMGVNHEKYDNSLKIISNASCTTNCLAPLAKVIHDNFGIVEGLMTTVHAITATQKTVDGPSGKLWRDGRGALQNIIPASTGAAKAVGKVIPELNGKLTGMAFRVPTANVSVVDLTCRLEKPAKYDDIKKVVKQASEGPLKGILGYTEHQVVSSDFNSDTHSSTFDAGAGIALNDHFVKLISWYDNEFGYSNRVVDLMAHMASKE
# Chain of Procathepsin L (P07711 whole entry): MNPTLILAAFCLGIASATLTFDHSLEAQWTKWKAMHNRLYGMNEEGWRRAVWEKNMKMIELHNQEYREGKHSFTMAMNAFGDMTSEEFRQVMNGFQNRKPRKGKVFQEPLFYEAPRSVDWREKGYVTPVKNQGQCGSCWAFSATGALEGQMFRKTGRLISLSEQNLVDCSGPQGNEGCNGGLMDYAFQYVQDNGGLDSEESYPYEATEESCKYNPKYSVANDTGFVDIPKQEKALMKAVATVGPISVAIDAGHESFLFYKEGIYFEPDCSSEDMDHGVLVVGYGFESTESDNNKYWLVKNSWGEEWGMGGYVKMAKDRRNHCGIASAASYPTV
# Chain of Guanyl-specific ribonuclease T1 (P00651 whole entry): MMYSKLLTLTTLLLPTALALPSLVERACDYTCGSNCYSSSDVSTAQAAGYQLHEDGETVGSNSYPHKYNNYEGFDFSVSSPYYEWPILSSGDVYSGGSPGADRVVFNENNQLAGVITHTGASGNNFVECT
# Chain of E3 ubiquitin-protein ligase Mdm2 (Q00987 whole entry): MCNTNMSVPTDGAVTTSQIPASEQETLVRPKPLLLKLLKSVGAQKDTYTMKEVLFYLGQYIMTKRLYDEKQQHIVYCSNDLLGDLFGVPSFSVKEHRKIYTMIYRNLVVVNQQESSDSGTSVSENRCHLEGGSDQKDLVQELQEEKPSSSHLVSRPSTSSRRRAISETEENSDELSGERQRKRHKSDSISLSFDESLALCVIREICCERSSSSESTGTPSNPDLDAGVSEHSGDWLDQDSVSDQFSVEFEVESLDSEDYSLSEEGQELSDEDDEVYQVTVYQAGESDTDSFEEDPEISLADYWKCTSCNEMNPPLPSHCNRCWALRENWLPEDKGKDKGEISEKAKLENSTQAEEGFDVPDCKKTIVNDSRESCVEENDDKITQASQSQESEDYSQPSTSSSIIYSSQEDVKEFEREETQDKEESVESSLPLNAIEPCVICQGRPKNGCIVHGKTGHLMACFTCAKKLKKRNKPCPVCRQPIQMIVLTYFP
# Chain of Sphingosine 1-phosphate receptor 2 (O95136 whole entry): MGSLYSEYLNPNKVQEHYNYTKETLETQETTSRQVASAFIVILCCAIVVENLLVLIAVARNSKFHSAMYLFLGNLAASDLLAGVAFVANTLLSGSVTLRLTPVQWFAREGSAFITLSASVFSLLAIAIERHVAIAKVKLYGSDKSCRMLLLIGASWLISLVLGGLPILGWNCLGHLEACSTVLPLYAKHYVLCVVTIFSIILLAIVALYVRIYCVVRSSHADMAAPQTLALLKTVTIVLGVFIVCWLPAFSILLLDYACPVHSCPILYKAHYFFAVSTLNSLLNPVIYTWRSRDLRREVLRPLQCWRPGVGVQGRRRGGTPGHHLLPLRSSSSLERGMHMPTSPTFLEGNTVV
# Chain of Genome polyprotein (Q2Q167 whole entry): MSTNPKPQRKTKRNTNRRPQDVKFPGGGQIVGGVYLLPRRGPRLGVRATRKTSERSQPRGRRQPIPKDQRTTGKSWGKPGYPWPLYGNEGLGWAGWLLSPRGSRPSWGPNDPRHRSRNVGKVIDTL
# Chain of Likely tRNA 2'-phosphotransferase (Q5A7N4 whole entry): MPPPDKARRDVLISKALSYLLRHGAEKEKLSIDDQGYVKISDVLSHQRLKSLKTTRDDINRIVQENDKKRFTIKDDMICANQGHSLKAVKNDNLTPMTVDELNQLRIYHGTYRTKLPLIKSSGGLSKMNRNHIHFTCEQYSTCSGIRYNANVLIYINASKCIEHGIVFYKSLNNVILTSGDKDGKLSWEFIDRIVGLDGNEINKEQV
# Chain of Aspartyl aminopeptidase (Q8I2J3 whole entry): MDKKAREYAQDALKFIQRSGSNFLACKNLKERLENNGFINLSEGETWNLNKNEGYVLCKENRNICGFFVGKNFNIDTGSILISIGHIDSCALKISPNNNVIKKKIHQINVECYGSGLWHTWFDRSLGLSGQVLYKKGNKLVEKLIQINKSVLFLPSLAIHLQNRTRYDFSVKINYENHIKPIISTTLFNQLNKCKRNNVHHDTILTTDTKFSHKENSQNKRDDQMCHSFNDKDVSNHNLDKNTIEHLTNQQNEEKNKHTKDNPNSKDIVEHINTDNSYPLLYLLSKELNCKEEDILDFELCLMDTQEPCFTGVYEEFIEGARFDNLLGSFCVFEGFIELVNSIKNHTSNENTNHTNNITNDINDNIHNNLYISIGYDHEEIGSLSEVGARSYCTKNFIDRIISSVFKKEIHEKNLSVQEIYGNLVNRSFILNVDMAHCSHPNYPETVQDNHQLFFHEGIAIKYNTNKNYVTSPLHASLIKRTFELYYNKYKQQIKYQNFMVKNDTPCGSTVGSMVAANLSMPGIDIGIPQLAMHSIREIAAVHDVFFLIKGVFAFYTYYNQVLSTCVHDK
# Chain of Ephrin type-A receptor 4 (Q03137 whole entry): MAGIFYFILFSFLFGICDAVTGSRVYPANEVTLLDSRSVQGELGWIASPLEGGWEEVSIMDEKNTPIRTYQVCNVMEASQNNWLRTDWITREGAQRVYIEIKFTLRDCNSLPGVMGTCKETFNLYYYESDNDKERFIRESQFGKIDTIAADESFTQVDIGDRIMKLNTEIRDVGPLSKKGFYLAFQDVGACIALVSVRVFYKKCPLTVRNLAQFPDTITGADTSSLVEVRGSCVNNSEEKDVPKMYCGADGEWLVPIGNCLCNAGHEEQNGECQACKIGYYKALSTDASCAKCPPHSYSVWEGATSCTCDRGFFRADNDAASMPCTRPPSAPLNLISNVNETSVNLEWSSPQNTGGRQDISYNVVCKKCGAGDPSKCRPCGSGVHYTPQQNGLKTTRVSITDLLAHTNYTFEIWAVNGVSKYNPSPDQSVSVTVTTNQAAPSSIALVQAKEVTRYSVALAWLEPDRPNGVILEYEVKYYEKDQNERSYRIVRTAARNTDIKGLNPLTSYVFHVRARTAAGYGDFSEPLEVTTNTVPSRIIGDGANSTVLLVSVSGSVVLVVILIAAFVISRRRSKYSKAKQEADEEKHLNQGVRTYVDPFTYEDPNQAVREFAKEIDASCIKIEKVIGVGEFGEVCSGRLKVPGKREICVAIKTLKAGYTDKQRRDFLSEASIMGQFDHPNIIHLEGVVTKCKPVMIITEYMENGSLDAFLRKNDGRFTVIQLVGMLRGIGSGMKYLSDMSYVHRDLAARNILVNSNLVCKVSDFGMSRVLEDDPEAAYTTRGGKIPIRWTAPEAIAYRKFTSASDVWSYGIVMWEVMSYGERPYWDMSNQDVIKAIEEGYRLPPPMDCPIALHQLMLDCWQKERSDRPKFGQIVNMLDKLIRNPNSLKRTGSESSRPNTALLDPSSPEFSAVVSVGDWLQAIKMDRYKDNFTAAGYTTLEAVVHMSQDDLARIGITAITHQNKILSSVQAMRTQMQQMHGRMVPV
# Chain of Voltage-gated inwardly rectifying potassium channel KCNH2 (Q12809 whole entry): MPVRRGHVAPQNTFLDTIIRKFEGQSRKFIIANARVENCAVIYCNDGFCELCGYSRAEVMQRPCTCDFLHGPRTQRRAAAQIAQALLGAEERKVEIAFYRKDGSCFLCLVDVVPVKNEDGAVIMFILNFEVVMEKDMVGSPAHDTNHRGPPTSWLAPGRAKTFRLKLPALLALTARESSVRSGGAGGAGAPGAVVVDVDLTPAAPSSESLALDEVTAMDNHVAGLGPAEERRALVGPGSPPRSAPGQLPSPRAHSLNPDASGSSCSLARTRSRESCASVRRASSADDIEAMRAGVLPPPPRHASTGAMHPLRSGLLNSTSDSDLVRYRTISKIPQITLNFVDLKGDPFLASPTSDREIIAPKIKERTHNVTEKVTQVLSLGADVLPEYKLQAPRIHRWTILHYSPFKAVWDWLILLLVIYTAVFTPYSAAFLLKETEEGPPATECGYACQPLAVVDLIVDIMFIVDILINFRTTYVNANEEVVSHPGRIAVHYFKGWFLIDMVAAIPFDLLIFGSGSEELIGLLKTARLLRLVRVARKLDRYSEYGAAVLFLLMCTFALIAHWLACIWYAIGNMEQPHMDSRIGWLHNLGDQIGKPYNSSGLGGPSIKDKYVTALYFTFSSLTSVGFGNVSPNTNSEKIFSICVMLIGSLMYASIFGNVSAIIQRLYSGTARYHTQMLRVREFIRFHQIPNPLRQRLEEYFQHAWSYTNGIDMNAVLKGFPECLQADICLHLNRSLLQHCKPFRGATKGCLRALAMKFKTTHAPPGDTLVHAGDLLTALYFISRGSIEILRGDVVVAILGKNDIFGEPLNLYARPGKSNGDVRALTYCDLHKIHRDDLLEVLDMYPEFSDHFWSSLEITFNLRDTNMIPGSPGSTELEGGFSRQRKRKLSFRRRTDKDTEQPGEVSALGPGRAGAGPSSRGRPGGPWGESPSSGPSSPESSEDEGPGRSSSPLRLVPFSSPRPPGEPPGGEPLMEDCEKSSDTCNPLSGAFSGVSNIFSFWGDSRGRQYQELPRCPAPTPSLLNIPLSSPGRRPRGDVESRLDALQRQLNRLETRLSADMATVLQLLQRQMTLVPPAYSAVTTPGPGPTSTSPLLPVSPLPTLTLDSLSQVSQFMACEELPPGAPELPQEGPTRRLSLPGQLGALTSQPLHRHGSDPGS
smiles,measurement,setting,value
O=c1c2sc(-c3ccccc3)cc2nc2n1CCC2,EC50,[1],8.3 µM (active)
same,EC50,HT-1080,> 50 µM (not active)
same,EC50,[2],< 0.2 µM (active)
same,EC50,[3],11.8 µM (inconclusive)
same,EC50,[4],> 120 µM (not active)
Oc1ccccc1-c1nc(-c2ccccc2)c(-c2ccccc2)[nH]1,IC50,NADPH oxidase 1 [5],> 17 µM (not active)
CCSc1nnc(NC(=O)C(C(F)(F)F)C(F)(F)F)s1,IC50,Ephrin type-A receptor 4,4.1 µM (active)
same,IC50,Bcl-2-related protein A1 [6],2.85 µM (active)
same,IC50,Bcl-2-related protein A1 [7],2.66 µM (active)
same,AC50,Cytochrome P450 2D6,25.1 µM (inconclusive)
COc1ccc(/C=N/Nc2c(Cl)cc(Cl)cc2Cl)cc1,IC50,NADPH oxidase 1 [8],> 17 µM (not active)
Cc1ccccc1N1C(=O)/C(=C/c2ccco2)C(=O)NC1=S,IC50,[9],> 55.7 µM (not active)
same,IC50,[10],< 1.23 µM (inactive)
same,EC50,[11],0.71 µM (active)
same,IC50,[12],< 1.23 µM (not active)
same,IC50,[13],2.44 µM (active)
same,IC50,[14],< 1.23 µM (inactive)
same,IC50,Genome polyprotein,4.78 µM (active)
CN1c2ccc(N)cc2Sc2cc(C(=O)c3ccccc3)ccc21,IC50,NADPH oxidase 1 [15],0.201 µM (active)
Cc1cc(C(=O)COC(=O)Cn2c(=O)oc3ccccc32)c(C)n1Cc1ccccc1,EC50,[16],> 30 µM (not active)
CSc1nsc(/C=C/Nc2ccc(F)cc2)c1C#N,EC50,[17],2.4 µM (not active)
COc1ccc2c(c1)CC/C(=C\C=C\c1ccccc1OC)C2=O,EC50,H4,13.8 µM (active)
same,EC50,[18],> 120 µM (not active)
same,EC50,[19],1.99 µM (active)
same,IC50,[20],> 100 µM (active)
O=C1C(Cl)=C(N2CCCCC2)C(=O)N1c1ccc(Cl)c(Cl)c1,IC50,[21],> 100 µM (not active)
same,IC50,Bcl-2-related protein A1 [7],1.3 µM (active)
same,IC50,Bcl-2-related protein A1 [22],> 100 µM (not active)
O=C(O)CCC(=O)N1N=C(c2c(-c3ccccc3)c3cc(Cl)ccc3[nH]c2=O)CC1c1ccccc1 (stereo unspecified),IC50,Procathepsin L,> 59.6 µM (not active)
same,IC50,Aspartyl aminopeptidase,> 73.5 µM (not active)
same,IC50,Aminopeptidase N,4.6 µM (active)
Cc1ccc2cc(C#N)c(N3CCCN(C(S)=NCCCN(C)C)CC3)nc2c1,IC50,Vero,24.4 µM (active)
Oc1nc2ccc(Cl)cc2c(-c2ccccc2)c1N1CCN(c2ccccn2)CC1,EC50,[23],8.58 µM (active)
same,EC50,Streptococcus,45.8 µM (active)
same,EC50,[24],5.29 µM (active)
same,EC50,[25],5.29 µM (active)
